Series [1] is described as follows: intravenous injection of Yoshixol in control rabbit, observation for abnormal signs. The format is in vivo. Particulars: Japanese white rabbit, 10 μl/Kg of 2 M Yoshixol with ethanol i.v. for 3 min, immediately after the injection through one month. As to the method: In addition, rabbit serum as the control which was shown in this example was produced by the following. In a Japanese white rabbit which was born from a parent as same as a rabbit which was used in the above example, 10 μl/Kg of 2 M Yoshixol with ethanol was injected intravenously for 3 min via a ear vein. Solution of Yoshixol was mixed with culture medium of 5 ml. The medium was filtered through miliporefilter of cellulose acetate (pore size, 0.45 μm). […] A rabbit was sacrificed under Nembutal anesthesia one month after the injection. Blood was removed.

The test system of the next series is MRSA. Kind of series: CFU of MRSA in broth after Yoshixol. The format is cell-based, methicilin resistant Staphylococcus aureus. From the text: (§1) This procedure was repeated twice.
In the next series the test system is Candida albicans. Kind of series: CFU of Candida albicans in broth after Yoshixol. The series is classed as cell-based. Particulars: for CFU: 2 M Yoshixol in ethanol, 10 ul/ml broth.
Excerpt: as §1

For another series, the system named is Pseudomonas aureginosa. Kind of series: CFU of Pseudomonas aureginosa after Yoshixol. Particulars: for CFU: 2 M Yoshixol in ethanol, 10 ul/ml broth, 10^8, 37° C. The series is classed as cell-based.
Excerpt: as §1

Series [2] deals with Mycobacterium Rapid Grower. Kind of series: CFU of Mycobacterium Rapid Grower after Yoshixol. The format is cell-based. Particulars: for CFU: 2 M Yoshixol in ethanol, 10 ul/ml broth, 3.3×10^5, 37° C.
Excerpt: as §1

The values that follow come from patent US7914793B2, “Method for producing an antigenic substance and antibody” (priority 1997, dated 2011).

`C=C1CC(C)(C)C=CC1=O` [Yoshixol, 4,4-dimethyl-6-methylene-2-cyclohexen-1-one]: in series [1], the “abnormal signs after injection” value is on record as “Any abnormal sign did not find”. For the same compound, the CFU entry is listed as “zero” in the series on MRSA (2 M Yoshixol in ethanol, 10 ul/ml broth, 7.6×10^8, 37 °, 24 hours after the incubation); “zero” with Candida albicans (10^8, 3 hours after the incubation); “zero” with Candida albicans (10^8, one hour after the incubation); “zero” in the series on Pseudomonas aureginosa (3 hours after the incubation); “zero” in the series with Pseudomonas aureginosa (one hour after the incubation); “zero” in series [2] (3 hours after the incubation). Also, the CFU entry in series [2] (one hour after the incubation) is given as “zero”. Also, the “colony growth on heart infusion agar after re-plating 0.1 ml” value (in the series with MRSA (incubated for 48 hours); in the series with Candida albicans (incubated for 48 hours); with Pseudomonas aureginosa (incubated at 37° C. for 48 hours); in series [2] (incubated at 37° C. for 72 hours)) was “no colony growth” in each case.
